{"source": "patent US11980596B2", "about": "(priority 2017, dated 2024)", "key": {"[1]": {"system": "patients with treatment-resistant depression (TRD)", "assay": "MADRS total score, response and remission (Example 7, phase 2 dose-response study)", "format": "in vivo, human", "conditions": "for MADRS: treatment difference relative to placebo: day 15, completers, same treatment 2 weeks; for MADRS: LS mean difference vs placebo, range over dose groups: 28, 56, 84 mg", "experimental": "At the beginning of double-blind Period 1, eligible participants were randomized (3:1:1:1) to intranasal placebo or esketamine 28, 56, or 84 mg, twice weekly (days 1 and 4) based on the first of two computer-generated randomization schedules (Period 1 and Period 2). Randomization was balanced by using randomly permuted blocks and stratified by study center. At the end of Period 1, those randomized to placebo who had moderate-to-severe symptoms (assessed by Quick Inventory of Depressive Symptomatology-Self Report (Trivedi 2016 and Rush, “The 16-item Quick Inventory of Depressive Symptomatology (QIDS) Clinician Rating (QIDS-C) and Self-Report (QIDS-SR): A psychometric evaluation in patients with chronic major depression”, Biol. Psychiatry, 2003, 54(5):573-583) [QIDS-SR16] total score: moderate, 11-16; severe, >16) were re-randomized (1:1:1:1) to intranasal esketamine 28, 56, or 84 mg or placebo, twice weekly (days 8 and 11), while those having mild or no symptoms continued on placebo. To maintain the blind, all participants completed an identical process prior to entry into Period 2, whether or not they were re-randomized. Regardless of response in the double-blind phase, all participants were eligible to enter the optional open-label phase. Esketamine (56 mg) was administered on the first day of the open-label phase (study day 15); subsequent doses could be adjusted (range: 28 to 84 mg) based on investigator's clinical judgment, with administration twice weekly for first 2 weeks, weekly for next 3 weeks, then every 2 weeks thereafter.\nEfficacy was assessed with the Montgomery-Asberg Depression Rating Scale (MADRS; Montgomery, “A new depression scale designed to be sensitive to change”, Br. J. Psychiatry, 1979, 134:382-389; Williams, “Development and reliability of a structured interview guide for the Montgomery Asberg Depression Rating Scale (SIGMA)”, Br. J. Psychiatry, 2008, 192(1):52-58) on days 1 (pre-dose and 2 hour post-dose), 2, 8 (pre-dose), 9, and 15, using the structured interview guide (SIGMA). See, Williams 2008.\nThe primary efficacy endpoint—change from baseline (pre-dose, day 1 in each period) to endpoint (day 8 in each period) in MADRS total score—was analyzed using the analysis of covariance (ANCOVA) model. For Period 1, the model included treatment and country as factors, and baseline MADRS total score as covariate. For Period 2, the model included treatment and country as factors, Period 2 baseline QIDS-SR16 score (moderate or severe), and Period 2 baseline MADRS total score as a continuous covariate.\nGiven the consistency between Periods 1 and 2 results (Chi 2016), esketamine dose groups were compared to placebo using a combined test on the weighted test statistics for each period in the double-blind treatment phase. A dose-response analysis on primary efficacy endpoint was performed using data combined from both periods. The Multiple Comparison Procedure—Modelling (MCP-Mod) methodology was performed (Williams 2008; Bretz, “Combining multiple comparisons and modeling techniques in dose-response studies”, Biometrics, 2005, 61:738-748)."}, "[2]": {"system": "patients with treatment-resistant depression (TRD)", "assay": "Vital signs: blood pressure and heart rate (Example 7)", "format": "in vivo, human", "conditions": "post-dose", "experimental": "(§1) Adverse events were monitored throughout the study. Other safety assessments (i.e., laboratory tests, vital signs, physical examination) were performed at pre-specified time points. Vital signs, the Clinician Administered Dissociative States Scale (CADSS; Bremner, “Measurement of dissociative states with the clinician-administered dissociative states scale (CADSS)”, J. Traumatic Stress, 1998, 11(1):125-136), and the 4-item positive symptom subscale from the Brief Psychiatric Rating Scale (BPRS; Overall, “The Brief Psychiatric Rating Scale. Psychological Reports”, 1962, 10:799-812) were assessed pre-dose, at 40 minutes, and 2 hours post-dose."}, "[3]": {"system": "patients with treatment-resistant depression (TRD)", "assay": "CADSS (Example 7)", "conditions": "human, in vivo, other: intranasal", "experimental": "as §1"}, "[4]": {"system": "patients with TRD", "assay": "Dissociation by CADSS in SPRAVATO clinical trials (label)", "format": "in vivo, human", "source_text": "The most common psychological effects of SPRAVATO were dissociative or perceptual changes (including distortion of time, space and illusions), derealization and depersonalization (61% to 75% of SPRAVATO-treated patients developed dissociative or perceptual changes based on the Clinician Administered Dissociative Symptoms Scale) [see Adverse Reactions (6.1)]. Given its potential to induce dissociative effects, carefully assess patients with psychosis before administering SPRAVATO; treatment should be initiated only if the benefit outweighs the risk.\nSPRAVATO can cause dissociative symptoms (including derealization and depersonalization) and perceptual changes (including distortion of time and space, and illusions). In clinical trials, dissociation was transient and occurred on the day of dosing. Dissociation was evaluated by adverse event reports and the Clinician-Administered Dissociative States Scale (CADSS) questionnaire. A CADSS total score of more than 4 indicates presence of dissociative symptoms, and such an increase to a score of 4 or more occurred in a higher number of patients on esketamine compared to placebo during the short-term trials (see Table 5)."}, "[5]": {"system": "healthy subjects", "assay": "Cardiac electrophysiology (QTc) study", "format": "in vivo, human", "experimental": "The effect of SPRAVATO (84 mg nasal spray and 0.8 mg/kg esketamine intravenously infused over 40 minutes) on the QTc interval was evaluated in a randomized, double-blind, placebo-, and positive-controlled (moxifloxacin 400 mg), 4-period, crossover study in 60 healthy subjects."}, "[6]": {"system": "transgenic (Tg.rasH2) mice", "assay": "6-month study in transgenic (Tg.rasH2) mice", "format": "in vivo, mouse", "conditions": "once-daily subcutaneous up to 75 mg/kg/day (reduced to 40 mg/kg/day during week 17); 6 months"}, "[7]": {"system": "adult subjects with TRD", "conditions": "post dose", "procedure": "The CADSS is an instrument for the measurement of present-state dissociative symptoms, and was administered to assess treatment-emergent dissociative symptoms. The CADSS consists of 23 subjective items, divided into 3 components: Depersonalization (Items 3 to 7, 20, and 23), derealization (Items 1, 2, 8 to 13, 16 to 19, and 21) and amnesia (Items 14, 15, and 22). Participant's responses were coded on a 5-point scale (0=not at all through to 4=extremely).\n(§2) The Clinician Administered Dissociative States Scale (CADSS) was measured prior to the start of each dose, at 40 minutes, and 1.5 hours postdose."}, "[8]": {"system": "elderly subjects with TRD", "conditions": "post dose", "procedure": "as §2"}, "[9]": {"assay": "Screening in vitro micronucleus test", "conditions": "in the presence of metabolic activation"}, "[10]": {"conditions": "OL endpoint - day 74, Placebo/Esketamine/OL Esketamine"}, "[11]": {"conditions": "Period 1, study period endpoint, esketamine 28 mg"}, "[12]": {"conditions": "Period 2, 2 hours, esketamine 84 mg"}, "[13]": {"conditions": "Period 2, 24 hours, esketamine 84 mg"}, "[14]": {"conditions": "Period 2, study period endpoint, esketamine 84 mg"}, "[15]": {"conditions": "Week 8 (Follow-up), Placebo/Esketamine/OL Esketamine"}}, "data": [{"smiles": "CN[C@]1(c2ccccc2Cl)CCCCC1=O", "note": "[esketamine, (S)-2-(2-chlorophenyl)-2-(methylamino)cyclohexanone]", "values": [{"measurement": "MADRS: treatment difference relative to placebo", "setting": "[1]; 28 mg", "result": "−6.0"}, {"measurement": "MADRS: treatment difference relative to placebo", "setting": "[1]; 56 mg", "result": "−8.3"}, {"measurement": "Proportion of responders (MADRS)", "setting": "[1]; 84 mg, Period 2 endpoint", "result": 50.0, "unit": "%"}, {"measurement": "Remitted (MADRS)", "setting": "[1]; 84 mg, after 2 weeks of treatment", "result": 40.0, "unit": "%"}, {"measurement": "MADRS response (≥50% improvement), %", "setting": "[1]; [10]", "result": 50.0, "unit": "%"}, {"measurement": "Remission (MADRS ≤10): No, %", "setting": "[1]; [10]", "result": 60.0, "unit": "%"}, {"measurement": "Remission (MADRS ≤10): Yes, %", "setting": "[1]; [10]", "result": 40.0, "unit": "%"}, {"measurement": "MADRS response (≥50% improvement), %", "setting": "[1]; OL endpoint - day 74, Placebo/Placebo/OL Esketamine", "result": 100, "unit": "%"}, {"measurement": "MADRS Remitters, %", "setting": "[1]; Period 1, 2 hours, esketamine 84 mg", "result": "(25.0) %"}, {"measurement": "MADRS Remitters, %", "setting": "[1]; Period 1, 24 hours, esketamine 84 mg", "result": "(25.0) %"}, {"measurement": "MADRS Remitters, %", "setting": "[1]; [11]", "result": "(9.1) %"}, {"measurement": "MADRS Responders, %", "setting": "[1]; [11]", "result": "(9.1) %"}, {"measurement": "MADRS Remitters, %", "setting": "[1]; Period 1, study period endpoint, esketamine 56 mg", "result": "(9.1) %"}, {"measurement": "MADRS Remitters, %", "setting": "[1]; Period 1, study period endpoint, esketamine 84 mg", "result": "(25.0) %"}, {"measurement": "MADRS: LS mean difference vs placebo, range over dose groups", "setting": "[1]; Period 1", "result": "−5.0 to −10.5"}, {"measurement": "MADRS Remitters, %", "setting": "[1]; [12]", "result": "(40.0) %"}, {"measurement": "MADRS Responders, %", "setting": "[1]; [12]", "result": "(40.0) %"}, {"measurement": "MADRS Remitters, %", "setting": "[1]; [13]", "result": "(20.0) %"}, {"measurement": "MADRS Responders, %", "setting": "[1]; [13]", "result": "(40.0) %"}, {"measurement": "MADRS Remitters, %", "setting": "[1]; [14]", "result": "(20.0) %"}, {"measurement": "MADRS Responders, %", "setting": "[1]; [14]", "result": "(20.0) %"}, {"measurement": "MADRS: LS mean difference vs placebo, range over dose groups", "setting": "[1]; Period 2", "result": "−3.1 to −6.9"}, {"measurement": "MADRS response (≥50% improvement), %", "setting": "[1]; [15]", "result": 25.0, "unit": "%"}, {"measurement": "Remission (MADRS ≤10): No, %", "setting": "[1]; [15]", "result": 75.0, "unit": "%"}, {"measurement": "Remission (MADRS ≤10): Yes, %", "setting": "[1]; [15]", "result": 25.0, "unit": "%"}, {"measurement": "Elevated blood pressure returned to the normal range by", "setting": "[2]", "result": "≤ 2", "unit": "h"}, {"measurement": "Perceptual changes/dissociative symptoms (CADSS): time of peak", "setting": "[3]", "result": "30 to 40", "unit": "min"}, {"measurement": "Incidence of dissociation reported as severe in intensity", "setting": "[4]; across studies", "result": "less than 4%"}, {"measurement": "Dissociation symptoms typically resolved by", "setting": "[4]; after dosing", "result": "≤ 1.5", "unit": "h"}, {"measurement": "Increase in heart rate", "setting": "[5]; 84 mg nasal spray and 0.8 mg/kg intravenously over 40 minutes", "result": "> 10", "unit": "bpm"}, {"measurement": "QTc prolongation", "setting": "[5]; therapeutic dose", "result": "lack of clinically relevant QTc prolongation"}, {"measurement": "Incidence of tumors", "setting": "[6]", "result": "did not increase the incidence of tumors"}, {"measurement": "Dissociative and perceptual change symptoms (CADSS) resolved by", "setting": "[7]", "result": "≤ 1.5", "unit": "h"}, {"measurement": "Dissociative and perceptual change symptoms (CADSS) resolved by", "setting": "[8]", "result": "≤ 1.5", "unit": "h"}, {"measurement": "Genotoxicity", "setting": "[9]", "result": "Genotoxic effects"}]}]}
